Experiment [1] relates to HCV genotype 1b (Con1) replicon in HUH-7 cells. As to the kind of experiment: HCV replicon luciferase reporter assay, genotype 1b. The format is cell-based. The conditions noted are these: Hepatitis C virus, Huh-7, 72 h, HCV genotype 1b replicon luciferase, 3 days incubation. The gist of the method: (§1)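 Replicon inhibition for both genotypes was measured as Renilla luciferase signal (EnduRen, 7.5 μM final, 2 h) after 3-day, 37° C exposure of replicon-bearing HUH-7 cells in 4% FCS DMEM, 0.5% DMSO. The 1b construct carries S1179I; the 1a H77 construct carries P1496L and S2204I. Twenty-point, 3-fold dilutions were fitted four-parametrically for EC50, and CC50 was taken from multiplexed Cell Titer-Blue.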
In general terms: Replicon systems follow genome replication, usually without infectious particles.

Experiment [2] relates to HCV genotype 1a (H77 strain) replicon in HUH-7 cells. As to the kind of experiment: HCV replicon luciferase reporter assay, genotype 1a. The class given is cell-based. The conditions noted are these: Hepatitis C virus, Huh-7, 72 h, HCV genotype 1a replicon luciferase, 3 days incubation. The procedure, abridged:
as §1

Each structure is given as a SMILES string. pEC50: −log10 of the molar value. Read-outs that look alike come from different tables or passages of the source. Some results are limits rather than exact numbers.

Broadly, the pEC50 is −log10 of the EC50, conventionally taken in molar units. `COc1ccc2c(O[C@@H]3C[C@H]4C(=O)N[C@]5(C(=O)NS(=O)(=O)C6(C)CC6)C[C@H]5/C=C\CC[C@H](C)C[C@@H](C)[C@H](NC(=O)O[C@H](C)C(F)(F)F)C(=O)N4C3)nc(-c3ccc(OC(C)C)cc3)c(OC)c2c1` [Compound 5349, (R)-1,1,1-trifluoropropan-2-yl ((2R,6S,7R,9S,13aS,14aR,16aS,Z)-2-((3-(4-isopropoxyphenyl)-4,6-dimethoxyisoquinolin-1-yl)oxy)-7,9-dimethyl-14a-(((1-methylcyclopropyl)sulfonyl)carbamoyl)-5,16-dioxo-1,2,3,5,6,7,8,9,10,11,13a,14,14a,15,16,16a-hexadecahydrocyclopropa[e]pyrrolo[1,2-a][1,4]diazacyclopentadecin-6-yl)carbamate]: the pEC50 in experiment [1] (read-out: LE_1b (EC50, range)) is more than 8.26; in experiment [2] (read-out: LE_1a (EC50, range)) it was 6.99 to 8.32.
As for `COc1ccc2c(O[C@@H]3C[C@H]4C(=O)N[C@]5(C(=O)NS(=O)(=O)C6(C)CC6)C[C@H]5/C=C\CC[C@@H](C)C[C@@H](C)[C@H](NC(=O)O[C@H](C)C(F)(F)F)C(=O)N4C3)nc(-c3ccc(OC(C)C)cc3)c(OC)c2c1` [Compound 5350, (R)-1,1,1-trifluoropropan-2-yl ((2R,6S,7R,9R,13aS,14aR,16aS,Z)-2-((3-(4-isopropoxyphenyl)-4,6-dimethoxyisoquinolin-1-yl)oxy)-7,9-dimethyl-14a-(((1-methylcyclopropyl)sulfonyl)carbamoyl)-5,16-dioxo-1,2,3,5,6,7,8,9,10,11,13a,14,14a,15,16,16a-hexadecahydrocyclopropa[e]pyrrolo[1,2-a][1,4]diazacyclopentadecin-6-yl)carbamate], the pEC50 was 8.83 in experiment [1] (read-out: LE_1b (EC50)); more than 8.26 in experiment [1] (read-out: LE_1b (EC50, range)); 8.67 in experiment [2] (read-out: LE_1a (EC50)); more than 8.26 in experiment [2] (read-out: LE_1a (EC50, range)).
Regarding `COc1cnc(O[C@@H]2C[C@H]3C(=O)N[C@]4(C(=O)NS(=O)(=O)C5CCC5)C[C@H]4/C=C\CC[C@@H](C)C[C@@H](C)[C@H](NC(=O)OC(C)(C)C)C(=O)N3C2)c2ccccc12` [Compound 5352], the pEC50 was more than 8.26 in experiment [1] (read-out: LE_1b (EC50, range)) and more than 8.26 in experiment [2] (read-out: LE_1a (EC50, range)).
On to `COc1cnc(O[C@@H]2C[C@H]3C(=O)N[C@]4(C(=O)NS(=O)(=O)C5CCC5)C[C@H]4/C=C\CC[C@H](C)C[C@@H](C)[C@H](NC(=O)OC(C)(C)C(F)(F)F)C(=O)N3C2)c2ccccc12` [Compound 5353, 1,1,1-trifluoro-2-methylpropan-2-yl((2R,6S,7R,9S,13aS,14aR,16aS,Z)-14a-((cyclobutylsulfonyl)carbamoyl)-2-((4-methoxyisoquinolin-1-yl)oxy)-7,9-dimethyl-5,16-dioxo-1,2,3,5,6,7,8,9,10,11,13a,14,14a,15,16,16a-hexadecahydrocyclopropa[e]pyrrolo[1,2-a][1,4]diazacyclopentadecin-6-yl)carbamate], for which the negative logarithm of the EC50 (pEC50) is more than 8.26 in experiment [1] (read-out: LE_1b (EC50, range)) and 6.99 to 8.32 in experiment [2] (read-out: LE_1a (EC50, range)).
In the same order, the values of `COc1cnc(O[C@@H]2C[C@H]3C(=O)N[C@]4(C(=O)NS(=O)(=O)C5CCC5)C[C@H]4/C=C\CC[C@@H](C)C[C@@H](C)[C@H](NC(=O)OC(C)(C)C(F)(F)F)C(=O)N3C2)c2ccccc12` [Compound 5354, 1,1,1-trifluoro-2-methylpropan-2-yl((2R,6S,7R,9R,13aS,14aR,16aS,Z)-14a-((cyclobutylsulfonyl)carbamoyl)-2-((4-methoxyisoquinolin-1-yl)oxy)-7,9-dimethyl-5,16-dioxo-1,2,3,5,6,7,8,9,10,11,13a,14,14a,15,16,16a-hexadecahydrocyclopropa[e]pyrrolo[1,2-a][1,4]diazacyclopentadecin-6-yl)carbamate] are more than 8.26 and more than 8.26.
For `CCOc1cnc(O[C@@H]2C[C@H]3C(=O)N[C@]4(C(=O)NS(=O)(=O)C5(CF)CC5)C[C@H]4/C=C\CC[C@@H](C)C[C@@H](C)[C@H](NC(=O)OC(C)(C)C(C)(F)F)C(=O)N3C2)c2ccccc12` [Compound 5355], the pEC50 is 8.30 to 9.00 in experiment [1] (GETYPE1B, read-out: LE_1b (EC50, range)) and 8.30 to 9.00 in experiment [2] (GETYPE1A, read-out: LE_1a (EC50, range)).
Regarding `CCOc1ccc2c(O[C@@H]3C[C@H]4C(=O)N[C@]5(C(=O)NS(=O)(=O)C6CC6)C[C@H]5/C=C\CC[C@@H](C)C[C@@H](CC)[C@H](NC(=O)OC(C)(C)C(F)(F)F)C(=O)N4C3)nccc2c1` [Compound 5357, 1,1,1-trifluoro-2-methylpropan-2-yl((2R,6S,7R,9R,13aS,14aR,16aS,Z)-14a-((cyclopropylsulfonyl)carbamoyl)-2-((6-ethoxyisoquinolin-1-yl)oxy)-7-ethyl-9-methyl-5,16-dioxo-1,2,3,5,6,7,8,9,10,11,13a,14,14a,15,16,16a-hexadecahydrocyclopropa[e]pyrrolo[1,2-a][1,4]diazacyclopentadecin-6-yl)carbamate], the pEC50 in experiment [1] (read-out: LE_1b (EC50, range)) was 9.00 to 9.29; in experiment [2] (read-out: LE_1a (EC50, range)), 8.30 to 9.00.
In the same order, the values of `CCOc1ccc2c(O[C@@H]3C[C@H]4C(=O)N[C@]5(C(=O)NS(=O)(=O)C6CC6)C[C@H]5/C=C\CC[C@@H](C)C[C@@H](CC)[C@H](NC(=O)OC(C)(C)C(C)(F)F)C(=O)N4C3)nccc2c1` [Compound 5359] are 8.30 to 9.00 and 8.30 to 9.00.
In the same order, the values of `CCOc1ccc2c(O[C@@H]3C[C@H]4C(=O)N[C@]5(C(=O)NS(=O)(=O)C6CC6)C[C@H]5/C=C\CC[C@@H](C)C[C@@H](CC)[C@H](NC(=O)OC(C)(C)C)C(=O)N4C3)nccc2c1` [Compound 5361, tert-butyl ((2R,6S,7R,9R,13aS,14aR,16aS,Z)-14a-((cyclopropylsulfonyl)carbamoyl)-2-((6-ethoxyisoquinolin-1-yl)oxy)-7-ethyl-9-methyl-5,16-dioxo-1,2,3,5,6,7,8,9,10,11,13a,14,14a,15,16,16a-hexadecahydrocyclopropa[e]pyrrolo[1,2-a][1,4]diazacyclopentadecin-6-yl)carbamate] are 9.00 to 9.29 and 9.00 to 9.29.
In the same order, the values of `CCOc1ccc2c(O[C@@H]3C[C@H]4C(=O)N[C@]5(C(=O)NS(=O)(=O)C6(CF)CC6)C[C@H]5/C=C\CC[C@@H](C)C[C@@H](C)[C@H](NC(=O)OC(C)(C)C(F)(F)F)C(=O)N4C3)nccc2c1` [Compound 5363, 1,1,1-trifluoro-2-methylpropan-2-yl((2R,6S,7R,9R,13aS,14aR,16aS,Z)-2-((6-ethoxyisoquinolin-1-yl)oxy)-14a-(((1-(fluoromethyl)cyclopropyl)sulfonyl)carbamoyl)-7,9-dimethyl-5,16-dioxo-1,2,3,5,6,7,8,9,10,11,13a,14,14a,15,16,16a-hexadecahydrocyclopropa[e]pyrrolo[1,2-a][1,4]diazacyclopentadecin-6-yl)carbamate] are 9.00 to 9.29 and 8.30 to 9.00.
On to `CCOc1ccc2c(O[C@@H]3C[C@H]4C(=O)N[C@]5(C(=O)NS(=O)(=O)C6(CF)CC6)C[C@H]5/C=C\CC[C@@H](C)C[C@@H](C)[C@H](NC(=O)OC(C)(C)C(C)(F)F)C(=O)N4C3)nccc2c1` [Compound 5365, 3,3-difluoro-2-methylbutan-2-yl((2R,6S,7R,9R,13aS,14aR,16aS,Z)-2-((6-ethoxyisoquinolin-1-yl)oxy)-14a-(((1-(fluoromethyl)cyclopropyl)sulfonyl)carbamoyl)-7,9-dimethyl-5,16-dioxo-1,2,3,5,6,7,8,9,10,11,13a,14,14a,15,16,16a-hexadecahydrocyclopropa[e]pyrrolo[1,2-a][1,4]diazacyclopentadecin-6-yl)carbamate], for which the negative logarithm of the EC50 (pEC50) is 9.00 to 9.29 in experiment [1] (read-out: LE_1b (EC50, range)) and 8.30 to 9.00 in experiment [2] (read-out: LE_1a (EC50, range)).
For the compound `CCOc1ccc2c(O[C@@H]3C[C@H]4C(=O)N[C@]5(C(=O)NS(=O)(=O)C6(CF)CC6)C[C@H]5/C=C\CC[C@@H](C)C[C@@H](C)[C@H](NC(=O)OC(C)(C)C)C(=O)N4C3)nccc2c1` [Compound 5367, tert-butyl ((2R,6S,7R,9R,13aS,14aR,16aS,Z)-2-((6-ethoxyisoquinolin-1-yl)oxy)-14a-(((1-(fluoromethyl)cyclopropyl)sulfonyl)carbamoyl)-7,9-dimethyl-5,16-dioxo-1,2,3,5,6,7,8,9,10,11,13a,14,14a,15,16,16a-hexadecahydrocyclopropa[e]pyrrolo[1,2-a][1,4]diazacyclopentadecin-6-yl)carbamate], the pEC50 in experiment [1] (read-out: LE_1b (EC50, range)) was 9.30 to 10.00; in experiment [2] (read-out: LE_1a (EC50, range)), 9.00 to 9.29.
For `CCOc1ccc2c(O[C@@H]3C[C@H]4C(=O)N[C@]5(C(=O)NS(=O)(=O)C6(C)CC6)C[C@H]5/C=C\CC[C@@H](C)C[C@@H](CC)[C@H](NC(=O)OC(C)(C)C(F)(F)F)C(=O)N4C3)nccc2c1` [Compound 5369, 1,1,1-trifluoro-2-methylpropan-2-yl((2R,6S,7R,9R,13aS,14aR,16aS,Z)-2-((6-ethoxyisoquinolin-1-yl)oxy)-7-ethyl-9-methyl-14a-(((1-methylcyclopropyl)sulfonyl)carbamoyl)-5,16-dioxo-1,2,3,5,6,7,8,9,10,11,13a,14,14a,15,16,16a-hexadecahydrocyclopropa[e]pyrrolo[1,2-a][1,4]diazacyclopentadecin-6-yl)carbamate], the pEC50 in experiment [1] (read-out: LE_1b (EC50, range)) is 8.30 to 9.00; in experiment [2] (read-out: LE_1a (EC50, range)), 8.30 to 9.00.
